In patent US20160002248A1, “GLS1 INHIBITORS FOR TREATING DISEASE” (Board of Regents, The University of Texas System, priority 2014, published 2016):

Legend:
A549 cells = assay: Proliferation Assay (A549 cell viability, Cell Titer Fluor); format: cell-based; settings: Homo sapiens, 72 hours
In short: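 Fluorescence read-out (Cell Titer Fluor, 30 min at 37 °C after reagent) after 72 h compound exposure of A549 cells; EC50 by four-parameter logistic curve fit. Cells: 1000/well, RPMI 1640 + 10% dialyzed FBS, 0.5% DMSO final.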

[1] = molecular target: T1, purified recombinant human GAC (GLS1) (Homo sapiens, UniProt O94925); assay: GLS1 Enzymatic Activity Assay (dual-coupled enzymatic assay); format: biochemical
T1 sequence (O94925 55-598 isoform O94925-3 limits assumed): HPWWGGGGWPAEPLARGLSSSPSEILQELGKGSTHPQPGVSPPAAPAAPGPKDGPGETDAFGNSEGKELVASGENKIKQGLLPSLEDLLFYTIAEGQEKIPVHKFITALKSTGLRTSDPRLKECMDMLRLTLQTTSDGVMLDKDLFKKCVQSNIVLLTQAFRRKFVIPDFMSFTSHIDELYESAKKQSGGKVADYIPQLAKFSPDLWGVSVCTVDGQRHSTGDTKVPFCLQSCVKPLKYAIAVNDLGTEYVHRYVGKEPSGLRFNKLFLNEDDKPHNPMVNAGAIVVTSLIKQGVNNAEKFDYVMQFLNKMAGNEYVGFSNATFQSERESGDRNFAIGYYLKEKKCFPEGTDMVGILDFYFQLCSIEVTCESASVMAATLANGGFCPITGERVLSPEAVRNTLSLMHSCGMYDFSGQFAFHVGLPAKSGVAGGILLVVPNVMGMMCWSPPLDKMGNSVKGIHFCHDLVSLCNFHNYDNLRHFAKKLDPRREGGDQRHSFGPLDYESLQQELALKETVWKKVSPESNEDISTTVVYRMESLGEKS
In short: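 In this coupled fluorometric format, phosphate-activated GAC (2 nM, 50 mM phosphate) is pre-exposed to compound for 10 min before 1 mM glutamine addition. Product is tracked as resorufin (530/590 nm) over time or at 20 min, and potency is derived by logistic fitting.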

| SMILES | EC50 (A549 cells) | IC50 [1] |
| --- | --- | --- |
| CC(C)(O)c1ccc(CNC(=O)c2cn(CCCCc3cc4c(C5CC5)c(C5CC5)[nH]c4nn3)nn2)cn1 [Example 213, 1-(4-{5,6-dicyclopropyl-7H-pyrrolo[2,3-c]pyridazin-3-yl}butyl)-N-{[6-(2-hydroxypropan-2-yl)pyridin-3-yl]methyl}-1H-1,2,3-triazole-4-carboxamide] | 100 to 500 nM | < 100 nM |
| O=C(NCc1ccc(CF)nc1)c1cn(CCCCc2cc3c(C4CC4)c(C4CC4)[nH]c3nn2)nn1 [Example 214, 1-(4-{5,6-dicyclopropyl-7H-pyrrolo[2,3-c]pyridazin-3-yl}butyl)-N-{[6-(fluoromethyl)pyridin-3-yl]methyl}-1H-1,2,3-triazole-4-carboxamide] | 100 to 500 nM | < 100 nM |
| Cc1ccc(CNC(=O)c2cn(CCCCc3cc4cc(-c5ccccc5C(F)(F)F)[nH]c4nn3)nn2)cn1 [Example 215, N-[(6-methylpyridin-3-yl)methyl]-1-(4-{6-[2-(trifluoromethyl)phenyl]-7H-pyrrolo[2,3-c]pyridazin-3-yl}butyl)-1H-1,2,3-triazole-4-carboxamide] | 100 to 500 nM | < 100 nM |
| O=C(NCc1cc(C(F)(F)F)ccn1)c1cn(CCCCc2cc3c(C4CC4)c(C4CCCC4)[nH]c3nn2)nn1 [Example 216, 1-(4-{6-cyclopentyl-5-cyclopropyl-7H-pyrrolo[2,3-c]pyridazin-3-yl}butyl)-N-{[4-(trifluoromethyl)pyridin-2-yl]methyl}-1H-1,2,3-triazole-4-carboxamide] | 100 to 500 nM | < 100 nM |
| O=C(NCc1ccc(C(F)(F)F)nc1)c1cn(CCCCc2cc3c(-c4ccc(F)cc4F)c(C4CC4)[nH]c3nn2)nn1 [Example 217, 1-(4-(6-cyclopropyl-5-(2,4-difluorophenyl)-7H-pyrrolo[2,3-c]pyridazin-3-yl)butyl)-N-((6-(trifluoromethyl)pyridin-3-yl)methyl)-1H-1,2,3-triazole-4-carboxamide] | 100 to 500 nM | < 100 nM |
| O=C(NCc1ccc(C(F)(F)F)cn1)c1cn(CCCCc2cc3c(-c4ccc(F)cc4F)c(C4CC4)[nH]c3nn2)nn1 [Example 218, 1-{4-[6-cyclopropyl-5-(2,4-difluorophenyl)-7H-pyrrolo[2,3-c]pyridazin-3-yl]butyl}-N-{[5-(trifluoromethyl)pyridin-2-yl]methyl}-1H-1,2,3-triazole-4-carboxamide] | 100 to 500 nM | < 100 nM |

Further lines, results first:

| EC50 (A549 cells) | IC50 [1] | SMILES |
| --- | --- | --- |
| 100 to 500 nM | < 100 nM | O=C(NCc1cc(C(F)(F)F)ccn1)c1cn(CCCCc2cc3c(C4CC4)c(C4CC4)[nH]c3nn2)nn1 [Example 210, 1-(4-{5,6-dicyclopropyl-7H-pyrrolo[2,3-c]pyridazin-3-yl}butyl)-N-{[4-(trifluoromethyl)pyridin-2-yl]methyl}-1H-1,2,3-triazole-4-carboxamide] |
| 100 to 500 nM | < 100 nM | O=C(NCc1cccc(C(F)(F)F)n1)c1cn(CCCCc2cc3c(C4CC4)c(C4CC4)[nH]c3nn2)nn1 [Example 211, 1-(4-{5,6-dicyclopropyl-7H-pyrrolo[2,3-c]pyridazin-3-yl}butyl)-N-{[6-(trifluoromethyl)pyridin-2-yl]methyl}-1H-1,2,3-triazole-4-carboxamide] |
| 100 to 500 nM | < 100 nM | O=C(NCc1cncc(C(F)(F)F)c1)c1cn(CCCCc2cc3c(C4CC4)c(C4CC4)[nH]c3nn2)nn1 [Example 212, 1-(4-{5,6-dicyclopropyl-7H-pyrrolo[2,3-c]pyridazin-3-yl}butyl)-N-{[5-(trifluoromethyl)pyridin-3-yl]methyl}-1H-1,2,3-triazole-4-carboxamide] |
| < 100 nM | < 100 nM | O=C(NCc1cc(C(F)(F)F)ccn1)c1cn(CCCCc2cc3c(-c4ccc(F)cc4F)c(C4CC4)[nH]c3nn2)nn1 [Example 219, 1-{4-[6-cyclopropyl-5-(2,4-difluorophenyl)-7H-pyrrolo[2,3-c]pyridazin-3-yl]butyl}-N-{[4-(trifluoromethyl)pyridin-2-yl]methyl}-1H-1,2,3-triazole-4-carboxamide] |
